From patent US20240148821A1, “PHARMACEUTICAL USE OF CYCLIC PEPTIDE COMPOUND” (CHUGAI SEIYAKU KABUSHIKI KAISHA, priority 2021, published 2024)
Numbered stars: 1 amine (or outer) side, 2 acyl side, 3 side chain; on linkers, the order of the positions; unused ones are H or OH. Bridge positions count the residues as written; N and C are the ends. Square brackets hold non-standard residues; d marks the D form. Peptide text beside a SMILES is read from it. * marks the point of attachment. hPhe(3-Cl-4-CF3) = N[C@@H](CCc1ccc(C(F)(F)F)c(Cl)c1)C(=O)O; hPhe(3-F,4-CF3) = N[C@@H](CCc1ccc(C(F)(F)F)c(F)c1)C(=O)O; Pro(trans-4-Ph) = O=C(O)[C@@H]1C[C@@H](c2ccccc2)CN1; hPhe(4-CF3) = N[C@@H](CCc1ccc(C(F)(F)F)cc1)C(=O)O; NEtPhe(4-Cl) = CCN[C@@H](Cc1ccc(Cl)cc1)C(=O)O; NMePhe(4-Cl) = CN[C@@H](Cc1ccc(Cl)cc1)C(=O)O; NMedβ3hAla = C[C@H](CC(=O)[*:2])N(C)[*:1]; NMeGly(cPent) = CN[C@H](C(=O)O)C1CCCC1; NMeGly(cBu) = CN[C@H](C(=O)O)C1CCC1; NMeCha = CN[C@@H](CC1CCCCC1)C(=O)O; NMeChg = CN[C@H](C(=O)O)C1CCCCC1; NMeI = CC[C@H](C)[C@H](NC)C(=O)O; NMeT = CN[C@H](C(=O)O)[C@@H](C)O; NMeD = CN[C@@H](CC(=O)O)C(=O)O; NMeL = CN[C@@H](CC(C)C)C(=O)O; NMeV = CN[C@H](C(=O)O)C(C)C; Trifluoroethyl = FC(F)(F)C*; d(β3hA) = C[C@@H](N)CC(=O)O; NMeS = CN[C@@H](CO)C(=O)O; NMeA = CN[C@@H](C)C(=O)O; NMeAib = CNC(C)(C)C(=O)O; Nle = CCCC[C@H](N)C(=O)O; Piperidide = C1CCN(*)CC1; Ac5c = NC1(C(=O)O)CCCC1; Aze = O=C(O)[C@@H]1CCN1; Sar = CNCC(=O)O

Key:
[1] = target: protein-protein interaction between Kras and SOS1 (biotin-tagged human Kras loaded with GDP, His-tagged human SOS1) (Homo sapiens (Human), UniProt P01116, G12D); test: Protein-protein interaction inhibition between Kras and SOS1 (KrasG12D-SOS PPI) using AlphaScreen; format: biochemical; conditions: AlphaScreen; biotin-tagged human Kras loaded with GDP, His-tagged human SOS1; read-out: KRAS G12D-SOS PPI IC50;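 also: kras produced in E. coli, Ni-coupled donor beads and streptavidin acceptor beads, excitation 680 nm with emission detected at 520–620 nm via singlet oxygen transfer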
[2] = test system: Human pancreatic cancer cell line AsPC-1 (G12D mutation Kras); test: AsPC-1 cell growth inhibition (AsPC-1 CGI); format: cell-based; conditions: read-out: AsPC-1 cell growth inhibition, 50% growth inhibitory concentration (IC50 value); 96 hours, CellTiter-Glo, values classified in ranges
Procedure: Test compounds were serially dilated with dimethyl sulfoxide, and 200 nL was then dispensed to a U-bottom 96-well plate using Labcyte Echo. […] The cell suspension was dispensed to a. plate containing a test compound at 100 μL per well and incubated at 37° C. in a 5% carbon dioxide gas incubator. 96 hours later, 80 μL of CellTiter-Glo (Promega) was added to each well and fluorescence was measured.

CC[C@H](C)[C@@H]1NC(=O)[C@H](CC(C)C)N(C)C(=O)C[C@@H](C)NC(=O)[C@H](CC(C)C)N(C)C(=O)C2(CCCC2)NC(=O)[C@H](CC(C)C)N(C)C(=O)[C@H](CCc2ccc(C(F)(F)F)c(Cl)c2)NC(=O)CN(C)C(=O)[C@H](CC2CCCCC2)N(C)C(=O)CN(C)C(=O)CN(C)C1=O [Compound 217] (cyclo([Ac5c][NMeL][d(β3hA)][NMeL]I[Sar][Sar][NMeCha][Sar][hPhe(3-Cl-4-CF3)][NMeL]))
IC50 [1]: 66 nM | IC50 [2]: > 500 nM

CC[C@H](C)[C@@H]1NC(=O)[C@H](CC(C)C)N(C)C(=O)C[C@@H](C(=O)N2CCCCC2)N(C)C(=O)[C@H]([C@@H](C)O)N(C)C(=O)C2(CCCC2)NC(=O)[C@@H]2CCCN2C(=O)[C@H](CCc2ccc(C(F)(F)F)c(Cl)c2)NC(=O)CN(C)C(=O)[C@H](CC2CCCCC2)N(C)C(=O)[C@@H]2CCN2C(=O)[C@H](C)N(C)C1=O [Compound 228] ([NMeL]I[NMeA][Aze][NMeCha][Sar][hPhe(3-Cl-4-CF3)]P[Ac5c][NMeT][NMeD]-Piperidide; lactam N-11)
IC50 [1]: 24 nM | IC50 [2]: > 500 nM

CC[C@H](C)[C@@H]1NC(=O)[C@H](CC(C)C)N(C)C(=O)C[C@@H](C(=O)N2CCCCC2)N(C)C(=O)[C@H]([C@@H](C)CC)N(C)C(=O)C2(CCCC2)NC(=O)[C@@H]2CCCN2C(=O)[C@H](CCc2ccc(C(F)(F)F)c(Cl)c2)NC(=O)CN(C)C(=O)[C@H](Cc2ccc(Cl)cc2)N(C)C(=O)[C@@H]2CCN2C(=O)[C@H](C)N(C)C1=O [Compound 253] ([NMeL]I[NMeA][Aze][NMePhe(4-Cl)][Sar][hPhe(3-Cl-4-CF3)]P[Ac5c][NMeI][NMeD]-Piperidide; lactam N-11)
IC50 [1]: 0.99 nM | IC50 [2]: ≤ 20 nM

CC[C@H](C)[C@@H]1NC(=O)[C@H](CC(C)C)N(C)C(=O)C[C@@H](C(=O)N2CCCCC2)N(C)C(=O)[C@H](C(C)C)N(C)C(=O)C2(CCCC2)NC(=O)[C@@H]2CCCN2C(=O)[C@H](CCc2ccc(C(F)(F)F)c(Cl)c2)NC(=O)CN(C)C(=O)[C@H](COCC(F)(F)F)N(C)C(=O)[C@@H]2CCN2C(=O)[C@H](C)N(C)C1=O [Compound 254] ([NMeL]I[NMeA][Aze][NMeS](Trifluoroethyl)[Sar][hPhe(3-Cl-4-CF3)]P[Ac5c][NMeV][NMeD]-Piperidide; lactam N-11)
IC50 [1]: 15 nM | IC50 [2]: > 500 nM

CC[C@H](C)[C@@H]1NC(=O)[C@H](CC(C)C)N(C)C(=O)C[C@@H](C(=O)N2CCCCC2)N(C)C(=O)[C@H](C2CCCCC2)N(C)C(=O)C2(CCCC2)NC(=O)[C@@H]2C[C@@H](c3ccccc3)CN2C(=O)[C@H](CCc2ccc(C(F)(F)F)c(Cl)c2)NC(=O)CN(C)C(=O)[C@H](CC2CCCCC2)N(C)C(=O)[C@@H]2CCCN2C(=O)CN(C)C1=O [Compound 255] ([NMeL]I[Sar]P[NMeCha][Sar][hPhe(3-Cl-4-CF3)][Pro(trans-4-Ph)][Ac5c][NMeChg][NMeD]-Piperidide; lactam N-11)
IC50 [1]: 7.8 nM | IC50 [2]: > 500 nM

CCCC[C@@H]1NC(=O)[C@H](CCc2ccc(C(F)(F)F)c(F)c2)NC(=O)CN(C)C(=O)[C@H](Cc2ccc(Cl)cc2)N(CC)C(=O)CN(C)C(=O)CN(C)C(=O)[C@H]([C@@H](C)CC)NC(=O)[C@H](CC(C)C)N(C)C(=O)C[C@@H](C)N(C)C(=O)[C@H](CC(C)C)NC(=O)C(C)(C)N(C)C1=O [Compound 257] (cyclo(I[Sar][Sar][NEtPhe(4-Cl)][Sar][hPhe(3-F,4-CF3)][Nle][NMeAib]L[NMedβ3hAla][NMeL]))
IC50 [1]: 97 nM | IC50 [2]: > 500 nM

CC[C@H](C)[C@@H]1NC(=O)[C@H](CC(C)C)N(C)C(=O)C[C@@H](C)N(C)C(=O)[C@H](CC(C)C)NC(=O)C(C)(C)N(C)C(=O)[C@H](CC(C)C)NC(=O)[C@H](CCc2ccc(C(F)(F)F)cc2)NC(=O)CN(C)C(=O)[C@H](CC2CCCCC2)N(C)C(=O)CN(C)C(=O)CN(C)C1=O [Compound 262] (cyclo(I[Sar][Sar][NMeCha][Sar][hPhe(4-CF3)]L[NMeAib]L[NMedβ3hAla][NMeL]))
IC50 [1]: 43 nM | IC50 [2]: > 500 nM

CC[C@H](C)[C@@H]1NC(=O)[C@H](C2CCC2)N(C)C(=O)C[C@@H](C(=O)N2CCCCC2)N(C)C(=O)[C@H](C2CCCC2)N(C)C(=O)C2(CCCC2)NC(=O)[C@@H]2CCCN2C(=O)[C@H](CCc2ccc(C(F)(F)F)c(Cl)c2)NC(=O)CN(C)C(=O)[C@H](CC2CCCCC2)N(C)C(=O)[C@@H]2CCN2C(=O)[C@H](C)N(C)C1=O [Compound 270] ([NMeGly(cBu)]I[NMeA][Aze][NMeCha][Sar][hPhe(3-Cl-4-CF3)]P[Ac5c][NMeGly(cPent)][NMeD]-Piperidide; lactam N-11)
IC50 [1]: 0.67 nM | IC50 [2]: ≤ 20 nM
